Like-named read-outs stand apart in the source and are kept apart here. Each block holds one molecule with its values, some of them ahead of it.
Tests used:
EBC-1 = experiment: 5-day viability assay, single agent and combination (Chou-Talalay CI); details: Homo sapiens, EBC-1, 120 h
Procedure: (§1) For assessment of synergistic activity, cells of each cell line were seeded at optimal density for growth onto different 96-well plates and placed into a humidified incubator (37° C., 5% CO2) to adhere overnight. The following day, the cells on each plate were treated either with a single agent (a PIKfyve inhibitor, e.g., apilimod, or a RAS pathway inhibitor) or with a combination of the two agents. Cells were treated for 120 hours and then assayed for cell viability using CellTiter-Glo™ (Promega).
(§2) Using this method, a CI value is calculated based on the effects of each drug alone on cell viability (single agent treatment) and the effects of each drug combination, across all combinations of both agents tested. The single agent treatments consisted of 8 different concentrations of each single agent, obtained by serial dilution. The concentrations were chosen to provide a range above and below the IC50 value of the single agent (if achieved) in a given cell line.
(§3) D1 alone and D2 alone were estimated from Hill's equation:
(§4) Here, we utilized cells harboring MET pathway activation, particularly the EBC-1, MKN45 and Caki-1 cell lines. In addition to MET inhibitors, since MET activates the RAS pathway, we also assayed for synergistic activity with inhibitors of the RAS pathway in these cells.

MKN45 = experiment: as above; details: Homo sapiens, MKN-45, 120 h
Procedure: as §1, §2, §3, §4

RKO cells = experiment: CellTiter-Glo cell viability, single agent and combination (Chou-Talalay CI); details: Homo sapiens; for IC50: 120 h, read-out: IC50 (single agent), RKO (colorectal, BRAF V600E), 120 h, average of two independent experiments
Procedure: as §1, §2
In each experiment for a given cell line, the combination treatments consisted of 8×8 or 64 different combination treatments.
Using this method, combinations with CI values>1 are considered antagonistic, CI values=1 are considered additive, and CI values<1 are considered synergistic.

GP5d = experiment: as above; assay type: cell-based; details: Homo sapiens, 120 h, GP5d (colorectal, KRAS G12D), average of two independent experiments
Procedure: as §1, §2, §3

A549 = experiment: as above; details: Homo sapiens, A549, 120 h, read-out: IC50 (single agent)
Procedure: (§5) For assessment of synergistic activity, cells of each cell line were seeded at optimal density for growth onto different 96-well plates and placed into a humidified incubator (37° C., 5% CO2) to adhere overnight. […] Cells were treated for 120 hours and then assayed for cell viability using CellTiter-Glo™ (Promega).
as §2

Caki-1 = experiment: 5-day viability assay, single agent and combination (Chou-Talalay CI); details: Homo sapiens, CAKI-1, 120 h
Procedure: as §1, §2, §3, §4

HT-29 = experiment: CellTiter-Glo cell viability, single agent and combination (Chou-Talalay CI); assay type: cell-based; details: Homo sapiens, HT-29, 120 h, HT-29 (colorectal, BRAF V600E), average of two independent experiments
Procedure: as §1, §2, §3

HCT-15 = experiment: as above; assay type: cell-based; details: Homo sapiens, HCT-15, 120 h, HCT-15 (colorectal, KRAS G13D), average of two independent experiments
Procedure: as §1, §2, §3

LS411N = experiment: as above; assay type: cell-based; details: 120 h, LS411N (colorectal, BRAF V600E), average of two independent experiments
Procedure: as §1, §2, §3

NCI-H1792 = experiment: as above; details: Homo sapiens, NCI-H1792, 120 h, read-out: IC50 (single agent)
Procedure: as §5, §2

A375 = experiment: as above; details: Homo sapiens, A-375, 120 h, read-out: IC50 (single agent)
Procedure: as §5, §2

SW1116 = experiment: 5-day CellTiter-Glo viability sensitivity screen; assay type: cell-based; details: Homo sapiens, SW 1116, 120 h; SW1116 colorectal (KRAS p.G12A); 5-day viability assays; read-out: IC50 (sensitive/resistant cut-off)
[1] = tested on: cell lines harboring MET pathway activation; experiment: 5-day viability assay, share of sensitive cell lines; assay type: cell-based; details: 6/10 cell lines
DLD1 = experiment: 5-day CellTiter-Glo viability sensitivity screen; assay type: cell-based; details: Homo sapiens, DLD-1, 120 h; DLD1 colorectal (KRAS p.G13D); 5-day viability assays; read-out: IC50 (sensitive/resistant cut-off)
NCI-H820 = experiment: 5-day viability assay; assay type: cell-based; details: 120 h, NCI-H820 (NSCLC, MET AMP), two independent experiments
[2] = tested on: colorectal cancer cell lines; experiment: Sensitivity screen, share of sensitive cell lines; assay type: cell-based; details: nine out of 14 cell lines; 5-day CellTiter-Glo viability
SBC-5 = experiment: 5-day viability assay; assay type: cell-based; details: Homo sapiens, 120 h, SBC-5 (SCLC, MET AMP), two independent experiments
NCI-H596 = experiment: 5-day viability assay; assay type: cell-based; details: Homo sapiens, 120 h, NCI-H596 (NSCLC, MET Exon 14), two independent experiments
SW620 = experiment: 5-day CellTiter-Glo viability sensitivity screen; assay type: cell-based; details: Homo sapiens, SW-620, 120 h; SW620 colorectal (KRAS p.G12V); 5-day viability assays; read-out: IC50 (sensitive/resistant cut-off)
COLO-741 = experiment: 5-day CellTiter-Glo viability sensitivity screen; assay type: cell-based; details: Homo sapiens, 120 h; COLO-741 colorectal; 5-day viability assays; read-out: IC50 (sensitive/resistant cut-off)
Hs746T = experiment: 5-day viability assay; assay type: cell-based; details: Homo sapiens, 120 h, Hs746T (gastric, AMP, Exon 14), two independent experiments
MDST8 = experiment: 5-day CellTiter-Glo viability sensitivity screen; assay type: cell-based; details: 120 h; MDST8 colorectal; 5-day viability assays; read-out: IC50 (sensitive/resistant cut-off)
SW1417 = experiment: 5-day CellTiter-Glo viability sensitivity screen; assay type: cell-based; details: Homo sapiens, 120 h; SW1417 colorectal; 5-day viability assays; read-out: IC50 (sensitive/resistant cut-off)
NCI-H1944 = experiment: CellTiter-Glo cell viability, single agent and combination (Chou-Talalay CI); details: Homo sapiens, NCI-H1944, 120 h, read-out: IC50 (single agent)
Procedure: as §5, §2

SNU-5 = experiment: 5-day viability assay; assay type: cell-based; details: Homo sapiens, 120 h, SNU-5 (gastric, MET AMP), two independent experiments
SW480 = experiment: 5-day CellTiter-Glo viability sensitivity screen; assay type: cell-based; details: Homo sapiens, 120 h; SW480 colorectal (KRAS p.G12V); 5-day viability assays; read-out: IC50 (sensitive/resistant cut-off)
NCI-H2122 = experiment: CellTiter-Glo cell viability, single agent and combination (Chou-Talalay CI); details: Homo sapiens, NCI-H2122, 120 h, read-out: IC50 (single agent)
Procedure: as §5, §2

A427 = experiment: as above; details: Homo sapiens, A-427, 120 h, read-out: IC50 (single agent)
Procedure: as §5, §2

NCI-H2023 = experiment: 5-day viability assay; assay type: cell-based; details: 120 h, NCI-H2023 (NSCLC, Autocrine), two independent experiments
NCI-H2030 = experiment: CellTiter-Glo cell viability, single agent and combination (Chou-Talalay CI); details: Homo sapiens, NCI-H2030, 120 h, read-out: IC50 (single agent)
Procedure: as §5, §2

BxPC3 = experiment: CellTiter-Glo cell viability, single agent; assay type: cell-based; details: Homo sapiens, BXPC-3; BxPC3 (pancreatic, BRAF delV487-P492); 120 h; average of two independent experiments
Procedure: The cell lines used in this study were derived from lung cancers, colorectal cancers, pancreatic cancer and melanoma, as shown in Table 2 below.
as §5

HCT116 = experiment: 5-day CellTiter-Glo viability sensitivity screen; assay type: cell-based; details: Homo sapiens, HCT-116, 120 h; HCT116 colorectal (KRAS p.G13D); 5-day viability assays; read-out: IC50 (sensitive/resistant cut-off)
COLO-205 = experiment: 5-day CellTiter-Glo viability sensitivity screen; assay type: cell-based; details: Homo sapiens, 120 h; COLO-205 colorectal; 5-day viability assays; read-out: IC50 (sensitive/resistant cut-off)
NCI-H1993 = experiment: 5-day viability assay; assay type: cell-based; details: Homo sapiens, 120 h, NCI-H1993 (NSCLC, MET AMP), two independent experiments
[3] = read-out: IC50 (single agent), EBC-1, 120 h, average of two independent experiments
[4] = read-out: IC50 (single agent), MKN45, 120 h, average of two independent experiments
[5] = read-out: Viability (normalized)

IC50 (MKN45; [4]): 7 nM
Compound: COCCOc1cnc2ccn([C@H](C)c3nnc4c(F)cc(-c5cnn(C)c5)cn34)c(=O)c2c1 [AMG 337]
IC50 (EBC-1; [3]): 4 nM

IC50 (MKN45; [4]): 269 nM
Compound: Cc1cccc(/C=N/Nc2cc(N3CCOCC3)n3nc(-c4ccncc4)cc3n2)c1 [APY-0201]
IC50 (EBC-1; [3]): 171 nM

IC50 (MKN45; [4]): 433 nM
Compound: CC(C)Nc1cc(-c2c[nH]c(C(=O)N[C@H](CO)c3cccc(Cl)c3)c2)c(Cl)cn1 [BVD-523]
IC50 (EBC-1; [3]): 866 nM
IC50 (RKO cells): 945 nM

IC50 (MKN45; [4]): 533 nM
Compound: Cn1cnc2c(F)c(Nc3ccc(Br)cc3F)c(C(=O)NOCCO)cc21 [Binimetinib, binimetinib]
IC50 (EBC-1; [3]): 75 nM
IC50 (GP5d): > 5000 nM

IC50 (MKN45; [4]): 67 nM
Compound: COc1cc2nccc(Oc3ccc(NC(=O)C4(C(=O)Nc5ccc(F)cc5)CC4)cc3)c2cc1OC [Cabozantinib, cabozantinib]
IC50 (EBC-1; [3]): 28 nM

IC50 (MKN45; [4]): 1.5 nM
Compound: CNC(=O)c1ccc(-c2cnc3ncc(Cc4ccc5ncccc5c4)n3n2)cc1F [Capmatinib, capmatinib]
IC50 (EBC-1; [3]): 0.7 nM

IC50 (A549): 403 nM
IC50 (MKN45; [4]): 194 nM
Compound: O=C(c1ccc(F)c(F)c1Nc1ccc(I)cc1F)N1CC(O)([C@@H]2CCCCN2)C1 [Cobimetinib, cobimetinib]
IC50 (EBC-1; [3]): 136 nM
IC50 (GP5d): > 5000 nM
IC50 (Caki-1; read-out: IC50 (single agent)): > 5000 nM

IC50 (MKN45; [4]): 13 nM
Compound: C[C@@H](Oc1cc(-c2cnn(C3CCNCC3)c2)cnc1N)c1c(Cl)ccc(F)c1Cl [Crizotinib, crizotinib]
IC50 (EBC-1; [3]): 10 nM

IC50 (MKN45; [4]): 5330 nM
Compound: Cn1nccc1Nc1nccc(-c2ccn([C@H](CO)c3ccc(Cl)c(F)c3)c(=O)c2)n1 [GDC-0994]
IC50 (EBC-1; [3]): 4150 nM

IC50 (A549): 6380 nM
IC50 (HT-29): 6510 nM
IC50 (HCT-15): 7050 nM
Compound: CNC(=O)c1cc(Oc2ccc(NC(=O)Nc3ccc(Cl)c(C(F)(F)F)c3)c(F)c2)ccn1 [Regorafenib, regorafenib]
IC50 (RKO cells): 4920 nM
IC50 (Caki-1; read-out: IC50 (single agent)): 5960 nM

IC50 (MKN45; [4]): 3 nM
Compound: C[C@@H](c1ccc2nccn2c1)n1nnc2ncc(-c3cnn(C)c3)nc21 [Savolitinib, savolitinib]
IC50 (EBC-1; [3]): 1.5 nM

IC50 (MKN45; [4]): 1110 nM
Compound: Cn1cnc2c(F)c(Nc3ccc(Br)cc3Cl)c(C(=O)NOCCO)cc21 [Selumetinib, selumetinib]
IC50 (EBC-1; [3]): 160 nM
IC50 (LS411N; Homo sapiens, LS-411N): 46 nM
IC50 (RKO cells): 3510 nM
viability at 0.078 µM (RKO cells; [5]): 78%
viability at 0.125 µM (RKO cells; [5]): 78%
viability at 0.313 µM (RKO cells; [5]): 71%
viability at 0.625 µM (RKO cells; [5]): 74%
viability at 1.25 µM (RKO cells; [5]): 64%
viability at 2.5 µM (RKO cells; [5]): 53%
viability at 5 µM (RKO cells; [5]): 46%
viability at 100 µM (RKO cells; [5]): 32%

IC50 (MKN45; [4]): 16 nM
Compound: CN1CCC(COc2cnc(-c3cccc(Cn4nc(-c5cccc(C#N)c5)ccc4=O)c3)nc2)CC1 [Tepotinib, tepotinib]
IC50 (EBC-1; [3]): 13 nM

IC50 (A549): 17 nM
IC50 (NCI-H1792): 33 nM
IC50 (HT-29): 3 nM
IC50 (A375): 2 nM
IC50 (MKN45; [4]): 18 nM
Compound: CC(=O)Nc1cccc(-n2c(=O)n(C3CC3)c(=O)c3c(Nc4ccc(I)cc4F)n(C)c(=O)c(C)c32)c1 [Trametinib, trametinib]
IC50 (EBC-1; [3]): 10 nM
IC50 (LS411N; Homo sapiens, LS-411N): 1 nM
IC50 (GP5d): > 5000 nM
IC50 (RKO cells): 32 nM
IC50 (Caki-1; read-out: IC50 (single agent)): 47 nM

IC50 (HT-29): 2470 nM
IC50 (HCT-15): > 10000 nM
Compound: CCCS(=O)(=O)Nc1ccc(F)c(C(=O)c2c[nH]c3ncc(-c4ccc(Cl)cc4)cc23)c1F [Vemurafenib, vemurafenib]
IC50 (LS411N; Homo sapiens, LS-411N): 350 nM
IC50 (RKO cells): 7120 nM

IC50 (SW1116): < 200 nM
IC50 (DLD1): < 200 nM
IC50 (NCI-H820): 103 nM
IC50 (A549): 49 nM
colorectal cancer cell lines sensitive to apilimod (average IC50 less than 200 nM) [2]: 64%
IC50 (NCI-H596): 304 nM
IC50 (SW620): < 200 nM
IC50 (COLO-741): > 200 nM
IC50 (NCI-H1792): > 400 nM
IC50 (SW1417): > 200 nM
IC50 (NCI-H1944): 36 nM
IC50 (SNU-5): 862 nM
IC50 (A375): 104 nM
IC50 (SW480): < 200 nM
IC50 (NCI-H2122): > 400 nM
IC50 (NCI-H2023): 73 nM
IC50 (MKN45; read-out: Average IC50, MKN45 (gastric, MET AMP), 5-day viability assay, two independent experiments): 191 nM
IC50 (NCI-H2030): 228 nM
IC50 (BxPC3): > 400 nM
IC50 (HCT116): < 200 nM
IC50 (COLO-205): < 200 nM
IC50 (NCI-H1993): 877 nM
Compound: Cc1cccc(/C=N/Nc2cc(N3CCOCC3)nc(OCCc3ccccn3)n2)c1 [apilimod]
cell lines harboring MET pathway activation sensitive to apilimod (IC50 less than 200 nM) [1]: 60%
IC50 (SBC-5): 108 nM
IC50 (EBC-1; read-out: Average IC50, EBC-1 (NSCLC, MET AMP), 5-day viability assay, two independent experiments): 113 nM
IC50 (LS411N): 89 nM
IC50 (GP5d): 209 nM
IC50 (Hs746T): 108 nM
IC50 (MDST8): > 200 nM
IC50 (A427): 80 nM
IC50 (RKO cells): > 200 nM
viability at 0.023 µM (RKO cells; [5]): 98%
viability at 0.035 µM (RKO cells; [5]): 93%
viability at 0.053 µM (RKO cells; [5]): 96%
viability at 0.079 µM (RKO cells; [5]): 93%
viability at 0.119 µM (RKO cells; [5]): 97%
viability at 0.178 µM (RKO cells; [5]): 70%
viability at 0.267 µM (RKO cells; [5]): 53%
viability at 0.4 µM (RKO cells; [5]): 44%
IC50 (Caki-1; read-out: Average IC50): 373 nM
